# Reference: paper PMC3344887 (PLoS ONE, 2012)
# Values joined by “and” are separate entries in the source; they are usually repeats but may differ in a detail not shown here. Equal entries are not always repeated. Where two headings read alike, the source gives them in different places.
# Assays:
# [1] = test system: healthy subjects; experiment: Adverse effects, List of Complaints, clinical study
# Protocol: (§1) The washout periods between the sessions were at least 10 days long.
# (§2) Identical placebo (lactose) capsules were prepared. […] Drugs were administered without food.
# (§3) Physiologic measures were assessed repeatedly 4, 3, 2, and 1 h before and 0, 0.33, 0.66, 1, 1.5, 2, 2.5, 3, 4, 5, and 6 h after MDMA or placebo administration. Heart rate, systolic blood pressure, and diastolic blood pressure were measured using an OMRON M7 blood pressure monitor (OMRON Healthcare Europe, Hoofddorp, The Netherlands). Measures were taken twice per time point with an interval of 1 min, and the average was used for the analysis. Core (tympanic) temperature was assessed using a GENIUS 2 ear thermometer (Tyco Healthcare Group, Watertown, NY). […] Adverse effects were assessed using the List of Complaints (LC), which consists of 66 items that yield a total adverse effects score and reliably measure physical and general discomfort.
# [2] = test system: healthy subjects; experiment: Adjective Mood Rating Scale (AMRS), clinical study; assay type: in vivo, humans; settings: peak change from baseline, mean±SEM, 16 subjects
# Protocol: as §1, §2
# (§4) The psychometric measures included Visual Analog Scales (VAS), [10], the Adjective Mood Rating Scale (AMRS), and 5-Dimensions of Altered States of Consciousness (5D-ASC), [23]. […] The VASs were presented as 100 mm horizontal lines marked “not at all" on the left and “extremely" on the right. The VASs for “closeness to others," “open," and “talkative" were bidirectional (±50 mm). The VASs were administered 4 h before and 0, 0.33, 1, 1.5, 2, 2.5, 3, 3.5, 4, and 5 h after MDMA or placebo administration. […] The AMRS contains subscales for activity, extroversion and introversion, well-being, emotional excitation, anxiety-depression, and dreaminess. The 5D-ASC rating scale measures alterations in mood, perception, experience of self in relation to the environment, and thought disorder. The 5D-ASC rating scale comprises five subscales or dimensions and 11 lower-order scales. The 5D-ASC dimension “oceanic boundlessness" (OB, 27 items) measures derealization and depersonalization associated with positive emotional states, ranging from heightened mood to euphoric exaltation. […] The global ASC score was determined by adding the OB, AED, and VR scores. The 5D-ASC scale was administered 4 h after MDMA or placebo administration.
# (§5) Clinical data values were transformed to differences from baseline. Peak effects (Emax) were determined for repeated measures. Emax values were compared using General Linear Models repeated-measures analysis of variance, with drug as within-subject factor, using Statistica 6.0 software (StatSoft, Tulsa, OK). Tukey post hoc comparisons were performed based on significant main effects of treatment. Additional analyses of variance were performed, with period as factor to exclude period effects. Correlation analyses were performed using Pearson’s correlations. The criterion for significance was p<0.05. Mean arterial pressure (MAP) was calculated from diastolic blood pressure and systolic blood pressure using the following formula: MAP = DBP+(SBP - DBP)/3.
# [3] = test system: patients; settings: 60-120 mg/day; cited from earlier work
# [4] = target: NE transporter; settings: read-out: Ki, NE transporter; rat cortex synaptosomes; cited from earlier work
# [5] = cited from earlier work; for Mean plasma Cmax: healthy volunteers
# [6] = test system: healthy subjects; experiment: Circulating plasma catecholamines, clinical study; assay type: in vivo, humans; settings: peak change from baseline, mean±SEM, 16 subjects
# Protocol: as §1, §2
# (§6) Plasma concentrations of copeptin were also determined in this study as reported elsewhere. […] No hydrolysis was performed. Thus, the values for HMMA represent the drug concentrations of the non-conjugated metabolite. All blood samples were collected on ice and centrifuged within 10 min at 4°C. The plasma was then stored at –20°C until the analysis.
# [7] = target: SERT (Homo sapiens, UniProt P31645)
# Chain of SERT (P31645 whole entry): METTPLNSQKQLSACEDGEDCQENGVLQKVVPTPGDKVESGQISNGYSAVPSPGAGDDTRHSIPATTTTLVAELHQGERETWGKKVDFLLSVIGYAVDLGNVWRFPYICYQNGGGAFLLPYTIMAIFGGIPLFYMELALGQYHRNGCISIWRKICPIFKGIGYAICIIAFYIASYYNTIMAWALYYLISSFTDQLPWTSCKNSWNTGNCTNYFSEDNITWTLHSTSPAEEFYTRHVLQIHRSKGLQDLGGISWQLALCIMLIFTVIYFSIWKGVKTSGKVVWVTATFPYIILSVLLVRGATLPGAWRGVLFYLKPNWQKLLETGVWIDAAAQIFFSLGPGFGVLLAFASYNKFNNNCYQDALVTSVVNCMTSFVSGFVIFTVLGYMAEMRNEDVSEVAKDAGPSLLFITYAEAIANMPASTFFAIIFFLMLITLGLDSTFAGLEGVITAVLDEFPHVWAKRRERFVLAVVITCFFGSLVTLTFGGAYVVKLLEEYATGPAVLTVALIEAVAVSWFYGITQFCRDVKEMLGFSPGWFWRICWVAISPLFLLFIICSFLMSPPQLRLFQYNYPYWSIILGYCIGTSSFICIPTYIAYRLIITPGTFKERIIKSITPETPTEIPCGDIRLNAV
# From the text: The procedures were adapted from previous studies, [3]. […] This transports the cells through the silicon oil layer to the KOH layer, thereby separating the cells from the buffer, which remains on top of the silicon oil layer. The centrifuge tubes were then transferred to liquid nitrogen. The amount of tracer that remained in the cells was quantified by cutting the frozen centrifuge tube above the KOH/oil interface and putting the tip of the tube with the cell pellet in a scintillation vial that contained 500 µl lysis buffer (0.05 M TRIS-HCl, 50 mM NaCl, 5 mM EDTA, and 1% Nonidet P-40 substitute in water). The samples were then shaken for 1 h on a rotary shaker, and 7 ml of scintillation fluid (Ultimagold, Perkin Elmer, Schwerzenbach, Switzerland) was added. Cell-associated radioactivity was then counted. […] Dose-response curves were generated using 9–11 concentrations of MDMA/MDA. […] All data points were derived from at least three independent experiments, each assayed in triplicate. The data were fit by non-linear regression, and EC50 and Emax values were calculated using Prism (GraphPad, San Diego, CA).
# [8] = test system: healthy subjects; experiment: Physiologic measures (blood pressure, heart rate, body temperature), clinical study; assay type: in vivo, humans; settings: peak change from baseline, mean±SEM, 16 subjects
# Protocol: as §1, §2, §3, §5
# [9] = test system: NE transporter; settings: cited from earlier work
# [10] = test system: healthy subjects; experiment: Visual Analog Scales, subjective drug effects, clinical study; assay type: in vivo, humans; settings: peak change from baseline, mean±SEM, 16 subjects
# Protocol: as §1, §2, §4, §5
# [11] = clinical; settings: human, in vivo
# Protocol: as §2, §6
# Cmax and tmax were obtained directly from the observed concentration-time curves. […] Terminal elimination half-life (t 1/2) was calculated using λz and the equation t1/2 = ln2/λz. The area under the plasma concentration-time curve up to 6 h (AUC0-6h) was calculated using the linear trapezoidal rule. The AUC0–∞ was determined by extrapolation of AUC0–6h using λz. The PK parameters were determined using the PK functions for Excel (Microsoft, Redmont, CA, USA). Plasma concentrations were only determined up to 6 h after MDMA administration because the aim of the study was to assess potential changes in MDMA plasma levels while relevant pharmacodynamic effects or MDMA were present.
# [12] = test system: healthy subjects; experiment: 5-Dimensions of Altered States of Consciousness (5D-ASC), clinical study; assay type: in vivo, humans; settings: p<0.001
# Protocol: as §1, §2, §4
# [13] = test system: DAT; settings: cited from earlier work
smiles,measurement,setting,value
CNCC[C@H](Oc1cccc2ccccc12)c1cccs1 [Duloxetine],"List of Complaints (total score), Acute adverse effects","[1]; at 3 h, change from baseline, mean±SEM, 16 subjects",−1.81±1.09
same,"List of Complaints (total score), Sub-acute adverse effects","[1]; at 24 h, change from baseline, mean±SEM, 16 subjects",−2.88±1.35
same,Adverse effects produced,[1]; clinical study,daytime somnolence and moderate insomnia
same,"AMRS Activity, Emin",[2],−2.69±0.69
same,"AMRS Dreaminess, Emax",[2],1.35±0.35
same,"AMRS Emotional excitation, Emax",[2],0.69±0.27
same,"AMRS Extroversion, Emax",[2],0.38±0.16
same,"AMRS Introversion, Emax",[2],1.13±0.30
same,"AMRS Well-being, Emax",[2],0.38±0.16
same,Incidence of constipation,[3],11%
same,Incidence of decreased appetite,[3],8%
same,Incidence of dizziness,[3],9-11%
same,Incidence of dry mouth,[3],15-18%
same,Incidence of fatigue,[3],14%
same,Incidence of headache,[3],20%
same,Incidence of insomnia,[3],11-15%
same,Incidence of nausea,[3],20-29%
same,Incidence of sweating,[3],6%
same,Ki,[4],2.1 nM
same,Mean Cmax at steady state,[5]; 40 mg once daily,35 ng/mL
same,Trough level at 24h at steady state,[5]; 40 mg once daily,approximately 10 ng/mL
same,Increase of AUC,[5]; after pretreatment with paroxetine,1.6 fold
same,Elimination half-life,[5],12 h
same,Tmax,[5],6 h
same,"Mean Cmax, population PK",[5]; daily 60 mg,30 to 60 ng/mL
same,"Mean trough level at 24h, population PK",[5]; daily 60 mg,~25 ng/mL
same,Peak level at steady state,"[5]; patients, daily 120 mg",100 ng/mL
same,Trough level at steady state,"[5]; patients, daily 120 mg",50 ng/mL
same,Mean plasma Cmax,[5]; single oral dose 30 mg,22 ng/mL
same,Mean plasma Cmax,[5]; single oral dose 60 mg,44 ng/mL
same,Mean plasma Cmax,[5]; single oral dose 90 mg,61 ng/mL
same,"Circulating Epinephrine, Emax",[6],0.46 ± 0.10 nM
same,"Circulating Norepinephrine, Emax",[6],-0.18 ± 0.07 nM
same,Effect on MDMA- and MDA-induced 5-HT release,[7],completely blocked
same,"DPB, Emax",[8]; diastolic blood pressure,6.00±0.97 mm Hg
same,"MAP, Emax",[8]; mean arterial pressure,5.11±1.01 mm Hg
same,"Heart rate, Emax",[8],5.06±1.27 beats/min
same,"SBP, Emax",[8]; systolic blood pressure,6.19±1.42 mm Hg
same,"Body temperature, Emax",[8]; tympanic,0.19±0.04 °C
same,Block of thyramine-induced increases in systolic blood pressure,[9]; 60 mg for 14 days,not able to block
same,Suppression of blood pressure increase due to thyramine,[9]; dose of 80-120 mg,effective in suppressing
same,"VAS Any drug effect, Emax",[10],6.00±2.52
same,"VAS Closeness, Emax",[10],0.00±0.00
same,"VAS Drug high, Emax",[10],4.81±2.93
same,"VAS Drug liking, Emax",[10],7.56±4.43
same,"VAS Good drug effect, Emax",[10],8.75±5.01
same,"VAS Open, Emax",[10],0.38±0.38
same,"VAS Stimulated, Emax",[10],5.13±2.45
same,"VAS Talkative, Emax",[10],0.31±0.31
same,Cmax,[11],112 ± 7.06 ng/mL
same,concentration at 120 min,[11],314 ± 2.5 nM
same,Cmax,[11]; 120 mg,107 ± 10.2 ng/mL
same,AUC(0-t),[11]; AUC0-6,800 ± 74.4 ng·h/mL
same,AUC(0-inf),[11]; AUC(0-∞),1960 ± 230 ng·h/mL
same,Cmax,"[11]; Plasma concentration Cmax, text of b61",112 ng/mL and 380 nM
same,half-life,[11]; T1/2,658 ± 62.4 min
same,Tmax,[11]; Tmax,5.14 ± 0.29 h
same,Effect on MDMA's effects on the total ASC score,[12],robustly reduced
same,Lower potency at DAT compared with SERT and NET,[13],10- to 100 fold
